Assay: Sensory evaluation by a trained panel, single sip protocol
Assay type: in vivo
Details: mean panel score, 400 ppm in water at 4° C.; for Bitter Aftertaste Intensity / Sweet Linger Intensity: 1 minute after tasting; for Overall Max Bitterness / Overall Max Sweetness: from sip up to 1 minute; for Bitter Intensity In Mouth: maximum bitterness in mouth during 5 seconds; for Sweet Intensity In Mouth: maximum sweetness in mouth during 5 seconds
Protocol: The sensory profiles of CC-00326, CC-00342 and CC-00345 were compared to rebaudioside M.
A trained panel evaluated the various samples. Samples were evaluated using a single sip protocol as follows: • Samples were served at approximately 4° C. • Panelists were instructed to take 1 sip of the sample, hold in mouth for 5 seconds, expectorate, and rate the given attributes • A 5 minute break was placed between each sample and panelists were instructed to cleanse their palates with at least 1 bite of unsalted cracker and 2 sips of filtered water • Due to limited sample quantity panelists were given 7 mL aliquots of each sample • Samples were randomized within each session for each panelist • All samples were presented in replicate in each session
Samples were evaluated for the following: • Sweet taste intensity: maximum level of sweetness in mouth during 5 seconds • Bitter taste intensity: maximum level of bitterness in mouth during 5 seconds • Overall maximum sweet intensity: maximum sweet intensity experienced from the time the sip is taken up to 1 minute • Overall maximum bitter intensity: […] experienced from the time the sip is taken up to 1 minute • Sweet linger intensity: sweet intensity 1 minute after tasting the sample • Bitter aftertaste intensity: bitter intensity 1 minute after tasting the sample
Data was analyzed with an ANOVA, with Sample as fixed effects and Panelist and interaction as random effects was used to determine significance between the samples for each attribute at the 95% Confidence Level, two-tailed. Fishers LSD was used to determine significant differences between mean scores.
The sensory profile of (i) 400 ppm CC-00326 was compared to (ii) 400 ppm Reb M 80% (rebaudioside M content 80% by weight on a dry basis). Both samples (i) and (ii) were formulated in a water matrix at 4° C.
The sensory profile of (i) 400 ppm CC-00342 was compared to (ii) 400 ppm Reb M 95% (rebaudioside M content 95% by weight on a dry basis). Both samples (i) and (ii) were formulated in a water matrix at 4° C.
The sensory profile of (i) 400 ppm CC-00345 was compared to (ii) 400 ppm Reb M 95% (rebaudioside M content 95% by weight on a dry basis). Both samples (i) and (ii) were formulated in a water matrix at 4° C.

[1] = Table 2 (CC-00342 vs Reb M 95%)
[2] = Table 3 (CC-00345 vs Reb M 95%)
[3] = Table 3 (CC-00345 vs Reb M 95%), p = 0.08 at the 90% CL
[4] = Table 1 (CC-00326 vs Reb M 80%)

SMILES | Bitter Aftertaste Intensity [1] | Sweet Linger Intensity [1] [A] | Overall Max Bitterness [1] | Overall Max Sweetness [1] [A] | Bitter Intensity In Mouth [1] | Sweet Intensity In Mouth [1] [A] | Bitter Aftertaste Intensity [2] [A] | Sweet Linger Intensity [2] [A] | Overall Max Sweetness [2] [A] | Overall Max Bitterness [3] [A] | Bitter Intensity In Mouth [2] [A] | Sweet Intensity In Mouth [2] [A] | Bitter Aftertaste Intensity [4] [A] | Sweet Linger Intensity [4] [A] | Overall Max Bitterness [4] | Overall Max Sweetness [4] [A] | Bitter Intensity In Mouth [4] | Sweet Intensity In Mouth [4]
C=C1C[C@@]23CCC4[C@](C)(C(=O)OC5OC(COC6OC(CO)C(O)C(O)C6O)C(O)C(O)C5OC5OC(CO)C(O)C(O)C5O)CCC[C@@]4(C)[C@@H]2CCC1(OC1OC(CO)C(O)C(OC2OC(CO)C(O)C(O)C2O)C1OC1OC(CO)C(O)C(O)C1O)C3 (stereo partly drawn) [CC-00342] | 1.0 | 3.8 | 2.0 | 8.1 | 1.2 | 6.7 | – | – | – | – | – | – | – | – | – | – | – | –
C=C1C[C@@]23CCC4[C@](C)(C(=O)OC5OC(COC6OC(CO)C(O)C(O)C6O)C(O)C(OC6OC(CO)C(O)C(O)C6O)C5OC5OC(CO)C(O)C(O)C5O)CCC[C@@]4(C)[C@@H]2CCC1(OC1OC(CO)C(O)C(OC2OC(CO)C(O)C(O)C2O)C1OC1OC(CO)C(O)C(O)C1O)C3 (stereo partly drawn) [CC-00345] | – | – | – | – | – | – | 1.8 | 3.9 | 7.2 | 2.2 | 1.3 | 6.6 | – | – | – | – | – | –
C=C1C[C@@]23CC[C@H]4[C@@](C)(CCC[C@@]4(C)C(=O)O[C@@H]4O[C@H](CO)[C@@H](O)[C@H](O[C@@H]5O[C@H](CO)[C@@H](O)[C@H](O)[C@H]5O)[C@H]4O[C@@H]4O[C@H](CO)[C@@H](O)[C@H](O)[C@H]4O)[C@@H]2CC[C@]1(O[C@@H]1O[C@H](CO)[C@@H](O)[C@H](O[C@@H]2O[C@H](CO)[C@@H](O)[C@H](O)[C@H]2O)[C@H]1O[C@@H]1O[C@H](CO)[C@@H](O)[C@H](O)[C@H]1O)C3 [Reb M 95%, rebaudioside M] | 1.0 | 4.5 | 2.0 | 8.5 | 1.1 | 7.0 | 1.3 | 3.6 | 7.4 | 1.5 | 1.3 | 7.1 | – | – | – | – | – | –
C=C1C[C@@]23CCC4[C@](C)(C(=O)OC5OC(COC6OC(CO)C(O)C(O)C6O)C(O)C(O)C5O)CCC[C@@]4(C)[C@@H]2CCC1(OC1OC(CO)C(O)C(OC2OC(CO)C(O)C(O)C2O)C1OC1OC(CO)C(O)C(O)C1O)C3 (stereo partly drawn) [CC-00326, 13-[(2-O-β-D-glucopyranosyl-3-O-β-D-glucopyranosyl-β-D-glucopyranosyl)oxy] ent-kaur-16-en-19-oic acid-[(6-O-α-D-glucopyranosyl-β-D-glucopyranosyl) ester]] | – | – | – | – | – | – | – | – | – | – | – | – | 0.9 | 3.9 | 1.6 B | 7.9 | 0.8 B | 6.9 B
C=C1C[C@@]23CC[C@H]4[C@@](C)(CCC[C@@]4(C)C(=O)O[C@@H]4O[C@H](CO)[C@@H](O)[C@H](O[C@@H]5O[C@H](CO)[C@@H](O)[C@H](O)[C@H]5O)[C@H]4O[C@@H]4O[C@H](CO)[C@@H](O)[C@H](O)[C@H]4O)[C@@H]2CC[C@]1(O[C@@H]1O[C@H](CO)[C@@H](O)[C@H](O[C@@H]2O[C@H](CO)[C@@H](O)[C@H](O)[C@H]2O)[C@H]1O[C@@H]1O[C@H](CO)[C@@H](O)[C@H](O)[C@H]1O)C3 [Reb M 80%, rebaudioside M] | – | – | – | – | – | – | – | – | – | – | – | – | 1.1 | 4.3 | 2.3 A | 9.0 | 1.6 A | 8.3 A

Reference: patent publication US11851695B2, “Preparing novel steviol glycosides by bioconversion” (The Coca-Cola Company, priority 2016, dated 2023)
